Test results: patent US12616681B2, “Compositions and methods for treating renal injury” (priority 2019, dated 2026)

What was measured:
[1] = test system: mice with ischemic AKI (bilateral renal IRI); assay: Renal IRI model: cAMP, AMP and adenosine levels; type: in vivo, C57/BL6 mice
Protocol: After reperfusion for 24 h, kidney tissues were harvested, homogenized in 10 volumes of 0.1 M HCl, and centrifuged for 10 min at 12,000 rpm. cAMP levels in kidney tissues and serum were measured using a cAMP Complete ELISA kit (Enzo Life Science, Farmingdale, NY). AMP and adenosine in kidney tissue were assessed by Agilent 6410 LC-MS/MS. Serum adenosine was measured using an assay kit (Abnova, Walnut, CA).

[2] = test system: mice with ischemic AKI (bilateral renal IRI); assay: Renal IRI model: PGE2 (EP1-EP4) and adenosine A2A receptor expression; type: in vivo, C57/BL6 mice
Protocol: PGE2 receptors (EP1, EP2, EP3, and EP4) and adenosineA2A receptor mRNA levels were deter-mined by real-time PCR. Their protein levels were determined by Western blot assay and immunofluorescence analysis.

[3] = test system: mice with ischemic AKI (bilateral renal IRI); assay: Renal IRI model: oxidative stress (MDA in kidney tissue); type: in vivo, C57/BL6 mice; conditions: single pre-IRI dose; vehicle peaked at 2 h at 48%
Protocol: Reactive oxygen species (ROS) levels were determined by measurement of malondialdehyde (MDA), the end product of lipid peroxidation in kidney lysates. Free MDA reacts with thiobarbituric acid (TBA) at 95° C. to generate an MDA-TBA adduct, which can be quantified colorimetrically at a wavelength of 532 nm. MDA levels were measured in kidney lysates using a lipid peroxidation (MDA) assay kit (Abcam, Cambridge, UK). Results were corrected for total protein level and are expressed as […].

[4] = test system: human renal proximal tubular epithelial cells (hRPTECs); assay: hRPTEC apoptosis by flow cytometry with iodixanol; type: cell-based; conditions: drug with iodixanol 50 mgI/mL, 24 h
Protocol: Human renal proximal tubular epithelial cells (hRPTECs) were purchased from the American Type Culture Collection (#PCS-400-010TM, Manassas, VA, USA). These cells were grown in 75 cm^2 flasks in Renal Epithelial Cell Basal Medium (PCS-400-030TM, ATCCVR) supplemented with Renal Epithelial Cell Growth Kit (PCS-400-040TM, ATCCVR).
After the treatment described in the section above, the hRPTECs were pelleted by centrifugation at 1800 rpm for 10 min and incubated with annexin V fluorescein isothiocyanate and propidium iodide using an Apoptosis Detection Kit I (#556547, BD Biosciences, San Jose, CA, USA) according to the manufacture's instruction. Then quantification was conducted using a FACSC flow cytometer with Cell Quest software (BD Biosciences).

[5] = test system: contrast-induced acute kidney injury (CIAKI) mice; assay: CIAKI mouse model: renal vasodilation in the outer medulla; type: in vivo, C57/BL6 mice; conditions: CM + drug, 48 h after CM
Protocol: 48 h after CM injection, kidney tissues were harvested, fixed in 4% phosphate-buffered formalin, and embedded in paraffin. To quantify vasodilation, the inner arteriole area of the outer medulla was determined using α-SMA-stained sections. They were incubated for 1 h with an α-SMA antibody. 3,30-diamino-benzidine (0.7 g/tablet; Sigma-Aldrich) was added, followed by washing three times with PBS for 1 min each. After counterstaining with Mayer's hematoxylin, the inner areas of α-SMA-positive vessels in the outer medulla (25× magnification) were measured using ImageJ software. The results were expressed as the average area of all of the renal arteries in each outer medulla section.

[6] = test system: contrast-induced acute kidney injury (CIAKI) mice; assay: CIAKI mouse model: renal blood flow (laser Doppler flux); type: in vivo, C57/BL6 mice; conditions: CM + drug, 48 h after CM
Protocol: Total RBF was assessed by measuring renal Doppler flux using noninvasive laser Doppler flowmetry (PeriFlux System 5000, Perimed AB, Sweden). Laser Doppler probes were placed on the kidney surface to measure the renal flux. The flux was measured 48 h after CM administration. The relative increase represented the percentage increase in renal blood flow from baseline to peak for each test. Statistical significance was set as p<0.05.

[7] = test system: contrast-induced acute kidney injury (CIAKI) mice; assay: CIAKI mouse model: PGE2 receptor (EP) expression in kidney tissue; type: in vivo, C57/BL6 mice; conditions: CM + drug
[8] = pretreatment, mRNA in kidney tissue

CCCC[S+]([O-])c1sc2nc(-c3cccs3)cc(-c3ccccc3)c2c1N (centres unmarked) [SW033291]
IRI-induced decrease of adenosine in the kidney ([1]; 24 h after IRI): reversed
AMP in kidney tissue ([1]; 24 h post-IRI): increased levels
serum adenosine ([1]; 24 h post-IRI): Increased
renal cAMP ([1]; 24 h post-IRI, vs sham mice): elevated over sham mice
adenosine A2A receptor ([2]; 24 h, vs sham and IRI mice): induced
EP4 receptor mRNA levels ([2]; 24 h post-IRI): significantly increased
levels of EP2 receptors ([2]; 24 h post-IRI): no effect
levels of EP3 receptors ([2]; 24 h post-IRI): no effect
EP4 receptor protein ([2]; 24 h post-IRI, vs vehicle-treated mice): more than twice as high
pre-IRI levels of A2A receptors [2, 8]: increased
pre-IRI levels of EP4 receptors [2, 8]: increased
MDA increase above baseline after renal IRI [3]: 14%
apoptosis rate of hRPTECs [4]: 10.06±0.85%
average renal arteriole area in the outer medulla [5]: 1132.97±159.86 μm^2
RBF (renal Doppler flux) [6]: 635.2±11.10
EP3 expression [7]: 1.00±0.02 fold
EP4 expression level [7]: 1.25±0.02 fold
